Measurements reported in US11446282B2, “Methods of treating mixed dyslipidemia and hypertriglycertdemia” (Kowa Company, Ltd., priority 2017, dated 2022).

System: dyslipidemic patients with renal impairment
Assay: Example 3 phase III 52-week trial: cholesterol in lipoprotein subclasses by HPLC
Format: in vivo, human
Details: for CM-C % Change from baseline at Week 52 (LOCF) / CM-C Week 52 (LOCF) / Large HDL-C % Change from baseline at Week 52 (LOCF) / Large HDL-C Week 52 (LOCF) / Large LDL-C % Change from baseline at Week 52 (LOCF) / Large LDL-C Week 52 (LOCF) / Medium HDL-C % Change from baseline at Week 52 (LOCF) / Medium HDL-C Week 52 (LOCF) / Medium LDL-C % Change from baseline at Week 52 (LOCF) / Medium LDL-C Week 52 (LOCF) / Small HDL-C % Change from baseline at Week 52 (LOCF) / Small HDL-C Week 52 (LOCF) / Small LDL-C % Change from baseline at Week 52 (LOCF) / Small LDL-C Week 52 (LOCF) / VLDL-C % Change from baseline at Week 52 (LOCF) / VLDL-C Week 52 (LOCF) / Very large HDL-C % Change from baseline at Week 52 (LOCF) / Very large HDL-C Week 52 (LOCF) / Very small HDL-C % Change from baseline at Week 52 (LOCF) / Very small HDL-C Week 52 (LOCF) / Very small LDL-C % Change from baseline at Week 52 (LOCF) / Very small LDL-C Week 52 (LOCF): 0.2 (0.4) mg/day
Protocol: This was a multicenter, single-arm, open-label, phase III trial. The inclusion criteria were as follows: (1) patients with dyslipidemia aged >20 years at the time of informed consent; (2) men and postmenopausal women; (3) fasting serum TG≥1.70 mmol/L (150 mg/dL) at two consecutive measurements during screening; and (4) patients who followed dietary and physical exercise guidance for >12 weeks before enrollment.
The major exclusion criteria were as follows: (1) patients with fasting serum TG≥5.65 mmol/L (500 mg/dL) during screening; (2) patients with poorly controlled diabetes mellitus (hemoglobin A1c [HbA1c]≥10.5%); (3) patients with concurrent poorly controlled thyroid disease; (4) men with serum creatinine ≥2.5 mg/dL and women with serum creatinine ≥2.0 mg/dL during screening who were already on statin therapy; (5) patients with eGFR<45 mL/min/1.73 m^2 during screening who were already on statin therapy; (6) patients with CK>5ULN (270 IU/L for men, 150 IU/L for women) during screening who were already on statin therapy; (7) patients with serious liver disease (cirrhosis Child-Pugh Class B or higher); (8) patients with gallstones or serious biliary tract disease; (9) patients who had suffered an acute myocardial infarction or stroke within three months before informed consent; and (10) patients with New York Heart Association class III or IV heart failure.
During the screening period (8 weeks prior to treatment initiation), tests were performed twice to determine patient eligibility. Thereafter, eligible patients orally received pemafibrate 0.2 mg/day (twice daily) for 52 weeks. From week 12 of the treatment period onwards, the investigators were instructed that the dose could be increased from 0.2 mg/day to 0.4 mg/day (twice daily) if there was an inadequate response to the initial dose based on fasting serum TG levels ≥1.70 mmol/L (150 mg/dL). Fasting blood and urine samples were collected at each visit. Blood and urine sample in patients with hemodialysis were collected just before dialysis. LDL-C levels were measured using the direct method. […]
The primary efficacy endpoint was the percent change in fasting serum TG from baseline to the last evaluation point. The primary safety endpoints were the incidence of an AE or ADR occurring after drug administration during the study. Secondary efficacy endpoints included percent changes in lipid variables and changes in inflammation variables at week 52 [using the last-observation-carried-forward (LOCF)]. Secondary safety endpoints included changes in the levels of aspartate aminotransferase (AST), ALT, -GT, ALP, serum creatinine, eGFR, and CK at week 52. Each baseline value was defined as (1) the mean of the corresponding values in the first and second tests at the screening examination and at week 0 of the treatment period for fasting serum TG, HDL-C, total cholesterol (TC), LDL-C, and non-HDL-C; and (2) the value at week 0 of the treatment period for the other secondary variables.
The numbers of patients with AEs and ADRs and the incidences of AEs and ADRs were calculated in the analysis of primary safety endpoints. For the secondary efficacy endpoints, one-sample t-tests or Wilcoxon signed-rank tests [for high-sensitivity C-reactive protein (hsCRP) and IL-1] were performed. The secondary safety endpoints were analyzed with Wilcoxon signed-rank tests. A two-sided significance level of 0.05 was used. SAS v. 9.3 (SAS Institute Inc., Cary, N.C., USA) was used for these analyses. Where indicated, the data are expressed as means±standard deviation (SD).

[1] = lowest eGFR group compared with other groups

## CC[C@@H](Oc1cccc(CN(CCCOc2ccc(OC)cc2)c2nc3ccccc3o2)c1)C(=O)O [Pemafibrate, (2R)-2-[3-({1,3-benzoxazol-2-yl[3-(4-methoxyphenoxy)propyl]amino}methyl)phenoxy]butanoic acid]
All Participants
  CM-C % Change from baseline at Week 52 (LOCF): −64.3%
  CM-C Week 52 (LOCF): 0.039 mmol/L
  Large HDL-C % Change from baseline at Week 52 (LOCF): −9.2%
  Large HDL-C Week 52 (LOCF): 0.115 mmol/L
  Large LDL-C % Change from baseline at Week 52 (LOCF): 63.1%
  Large LDL-C Week 52 (LOCF): 0.748 mmol/L
  Medium HDL-C % Change from baseline at Week 52 (LOCF): 19.3%
  Medium HDL-C Week 52 (LOCF): 0.443 mmol/L
  Medium LDL-C % Change from baseline at Week 52 (LOCF): 17.3%
  Medium LDL-C Week 52 (LOCF): 1.194 mmol/L
  Small HDL-C % Change from baseline at Week 52 (LOCF): 24.2%
  Small HDL-C Week 52 (LOCF): 0.473 mmol/L
  Small LDL-C % Change from baseline at Week 52 (LOCF): −20.6%
  Small LDL-C Week 52 (LOCF): 0.517 mmol/L
  VLDL-C % Change from baseline at Week 52 (LOCF): −24.9%
  VLDL-C Week 52 (LOCF): 0.866 mmol/L
  Very large HDL-C % Change from baseline at Week 52 (LOCF): 4.4%
  Very large HDL-C Week 52 (LOCF): 0.048 mmol/L
  Very small HDL-C % Change from baseline at Week 52 (LOCF): 27.9%
  Very small HDL-C Week 52 (LOCF): 0.181 mmol/L
  Very small LDL-C % Change from baseline at Week 52 (LOCF): −11.6%
  Very small LDL-C Week 52 (LOCF): 0.210 mmol/L
eGFR G1 (≥90)
  CM-C % Change from baseline at Week 52 (LOCF): −54.1%
  CM-C Week 52 (LOCF): 0.064 mmol/L
  Large HDL-C % Change from baseline at Week 52 (LOCF): −14.1%
  Large HDL-C Week 52 (LOCF): 0.107 mmol/L
  Large LDL-C % Change from baseline at Week 52 (LOCF): 54.5%
  Large LDL-C Week 52 (LOCF): 0.724 mmol/L
  Medium HDL-C % Change from baseline at Week 52 (LOCF): 11.4%
  Medium HDL-C Week 52 (LOCF): 0.441 mmol/L
  Medium LDL-C % Change from baseline at Week 52 (LOCF): 15.5%
  Medium LDL-C Week 52 (LOCF): 1.244 mmol/L
  Small HDL-C % Change from baseline at Week 52 (LOCF): 18.1%
  Small HDL-C Week 52 (LOCF): 0.482 mmol/L
  Small LDL-C % Change from baseline at Week 52 (LOCF): −18.0%
  Small LDL-C Week 52 (LOCF): 0.576 mmol/L
  VLDL-C % Change from baseline at Week 52 (LOCF): −24.6%
  VLDL-C Week 52 (LOCF): 0.932 mmol/L
  Very large HDL-C % Change from baseline at Week 52 (LOCF): 0.8%
  Very large HDL-C Week 52 (LOCF): 0.047 mmol/L
  Very small HDL-C % Change from baseline at Week 52 (LOCF): 20.6%
  Very small HDL-C Week 52 (LOCF): 0.186 mmol/L
  Very small LDL-C % Change from baseline at Week 52 (LOCF): −10.3%
  Very small LDL-C Week 52 (LOCF): 0.233 mmol/L
eGFR G2 (≥60 and <90)
  CM-C % Change from baseline at Week 52 (LOCF): −63.9%
  CM-C Week 52 (LOCF): 0.038 mmol/L
  Large HDL-C % Change from baseline at Week 52 (LOCF): −10.9%
  Large HDL-C Week 52 (LOCF): 0.115 mmol/L
  Large LDL-C % Change from baseline at Week 52 (LOCF): 67.7%
  Large LDL-C Week 52 (LOCF): 0.765 mmol/L
  Medium HDL-C % Change from baseline at Week 52 (LOCF): 17.7%
  Medium HDL-C Week 52 (LOCF): 0.448 mmol/L
  Medium LDL-C % Change from baseline at Week 52 (LOCF): 18.7%
  Medium LDL-C Week 52 (LOCF): 1.226 mmol/L
  Small HDL-C % Change from baseline at Week 52 (LOCF): 23.6%
  Small HDL-C Week 52 (LOCF): 0.477 mmol/L
  Small LDL-C % Change from baseline at Week 52 (LOCF): −20.6%
  Small LDL-C Week 52 (LOCF): 0.522 mmol/L
  VLDL-C % Change from baseline at Week 52 (LOCF): −25.3%
  VLDL-C Week 52 (LOCF): 0.834 mmol/L
  Very large HDL-C % Change from baseline at Week 52 (LOCF): 4.1%
  Very large HDL-C Week 52 (LOCF): 0.048 mmol/L
  Very small HDL-C % Change from baseline at Week 52 (LOCF): 30.9%
  Very small HDL-C Week 52 (LOCF): 0.181 mmol/L
  Very small LDL-C % Change from baseline at Week 52 (LOCF): −9.7%
  Very small LDL-C Week 52 (LOCF): 0.211 mmol/L
eGFR G3a-G3b (≥30 and <60)
  CM-C % Change from baseline at Week 52 (LOCF): −67.7%
  CM-C Week 52 (LOCF): 0.038 mmol/L
  Large HDL-C % Change from baseline at Week 52 (LOCF): −4.9%
  Large HDL-C Week 52 (LOCF): 0.124 mmol/L
  Large LDL-C % Change from baseline at Week 52 (LOCF): 59.1%
  Large LDL-C Week 52 (LOCF): 0.720 mmol/L
  Medium HDL-C % Change from baseline at Week 52 (LOCF): 20.6%
  Medium HDL-C Week 52 (LOCF): 0.447 mmol/L
  Medium LDL-C % Change from baseline at Week 52 (LOCF): 18.9%
  Medium LDL-C Week 52 (LOCF): 1.127 mmol/L
  Small HDL-C % Change from baseline at Week 52 (LOCF): 24.6%
  Small HDL-C Week 52 (LOCF): 0.467 mmol/L
  Small LDL-C % Change from baseline at Week 52 (LOCF): −18.9%
  Small LDL-C Week 52 (LOCF): 0.501 mmol/L
  VLDL-C % Change from baseline at Week 52 (LOCF): −22.9%
  VLDL-C Week 52 (LOCF): 0.892 mmol/L
  Very large HDL-C % Change from baseline at Week 52 (LOCF): 5.9%
  Very large HDL-C Week 52 (LOCF): 0.051 mmol/L
  Very small HDL-C % Change from baseline at Week 52 (LOCF): 19.7%
  Very small HDL-C Week 52 (LOCF): 0.180 mmol/L
  Very small LDL-C % Change from baseline at Week 52 (LOCF): −15.8%
  Very small LDL-C Week 52 (LOCF): 0.207 mmol/L
eGFR G4-G5 (<30)
  CM-C % Change from baseline at Week 52 (LOCF): −79.4%
  CM-C Week 52 (LOCF): 0.039 mmol/L
  Large HDL-C % Change from baseline at Week 52 (LOCF): 5.2%
  Large HDL-C Week 52 (LOCF): 0.096 mmol/L
  Large LDL-C % Change from baseline at Week 52 (LOCF): 39.9%
  Large LDL-C Week 52 (LOCF): 0.689 mmol/L
  Medium HDL-C % Change from baseline at Week 52 (LOCF): 53.2%
  Medium HDL-C Week 52 (LOCF): 0.336 mmol/L
  Medium LDL-C % Change from baseline at Week 52 (LOCF): −2.8%
  Medium LDL-C Week 52 (LOCF): 0.920 mmol/L
  Small HDL-C % Change from baseline at Week 52 (LOCF): 39.1%
  Small HDL-C Week 52 (LOCF): 0.395 mmol/L
  Small LDL-C % Change from baseline at Week 52 (LOCF): −38.6%
  Small LDL-C Week 52 (LOCF): 0.381 mmol/L
  VLDL-C % Change from baseline at Week 52 (LOCF): −28.7%
  VLDL-C Week 52 (LOCF): 1.076 mmol/L
  Very large HDL-C % Change from baseline at Week 52 (LOCF): 17.1%
  Very large HDL-C Week 52 (LOCF): 0.044 mmol/L
  Very small HDL-C % Change from baseline at Week 52 (LOCF): 23.5%
  Very small HDL-C Week 52 (LOCF): 0.155 mmol/L
  Very small LDL-C % Change from baseline at Week 52 (LOCF): −33.4%
  Very small LDL-C Week 52 (LOCF): 0.158 mmol/L
Lowest eGFR group
  high-density lipoprotein cholesterol change (observation): increase
[1]
  VLDL-C change (observation): greatest reduction
  chylomicron (CM-C) change (observation): greatest reduction
  small low-density lipoprotein cholesterol change (observation): greatest reduction
